Measurements from PMC5321639, “Design and pharmacodynamics of recombinant NZ2114 histidine mutants with improved activity against methicillin-resistant Staphylococcus aureus” (AMB Express, 2017).
Converted amounts (≈) assume the structure as drawn. “And” between values parts separate entries of the source, which are not always exact repeats. Equal entries are not always repeated. Where a SMILES comes first, the peptide text is derived from it. Bridges are numbered along the chain shown (N, C = ends).

What was measured:
[1] = system: S. aureus ATCC43300; test: Effect of proteinases on activity (MIC); type: cell-based, Staphylococcus aureus; conditions: trypsin (pH 8.0), 1:10 w/w proteinase:peptide, 37 °C for 3 h, then MIC assay
Method: (§1) The peptide solutions were diluted twofold with the range of final concentrations were 0.015–32 µg/ml (0.003–7.273 µM) for purified H1, H2, H3, H6, and H8. The test strains were grown in MHB medium at 37 °C to an OD600 of 0.4 and diluted to 1 × 10^5 CFU/ml. The 10 µl peptide and 90 µl cell suspension were added into each well. All assays were performed in triplicate. The antimicrobial activity of NZ2114 and vancomycin were tested as positive controls. The plates were incubated at 37 °C for 18–24 h. MIC was defined as the lowest peptide concentration of ones at which there was no visible growth (Tian et al. [2009]).
(§2) The effect of pH, temperature, NaCl concentration and proteinase on the activity of peptides was evaluated. Peptides were diluted twofold, then adjusted to a pH range from 2.0 to 10.0 and incubated at 37 °C for 4 h. The thermal stability of purified peptides was determined after 1-h incubation of peptides at 4, 20, 40, 60, 80 and 100 °C in deionized water, respectively. Aliquots of peptides were incubated in various proteinases solutions [pepsin (pH 2.0), trypsin (pH 8.0), proteinase K (pH 7.0)] at a ratio of 1:10, w/w (proteinase: peptide) at 37 °C for 3 h. For the ion stability, peptides were incubated in 50, 100, 200, 300, 400, 500 mM sodium chloride solutions, respectively. Other methods and conditions were prepared as the MIC assay described above (Li et al. [2015]; Qu et al. [2016]).

[2] = system: S. aureus ATCC43300; test: Postantibiotic effect (PAE); type: cell-based, Staphylococcus aureus; conditions: 2 h exposure at 37 °C, 1 × 10^8 CFU/ml, drug removed by 1:10^3 dilution, mean ± SD, n = 3
Method: After 2 h, the drug was removed by diluting 1:10^3 into the MHB and incubated at 37 °C, 250 rpm. The sample was taken to plate counting every 1 h until the bacterial cultures become turbid. The PAE was calculated by the following formula: PAE = T − C, where T is the time needed for the count of CFU in the test culture to increase 1 log10 (10-fold) above the 0 h and C is the time needed for the count of CFU in the untreated control culture to increase 1 log10 above the 0 h (Giguère et al. [2012]).

[3] = system: S. aureus ATCC43300 (MRSA); test: Time-kill curve assay; type: cell-based, Staphylococcus aureus; conditions: for time for bacterial counts to decrease to 2 log10 CFU/ml (a 99.9% reduction): start 1 × 10^5 CFU/ml, 37 °C, triplicate
Method: Bacterial culture (S. aureus ATCC43300) was diluted to 1 × 10^5 CFU/ml and H1, H2, and H3 were added. […] The mixture was cultivated at 250 rpm, 37 °C. The 100-µl samples were taken from each flask at 0, 2, 4, 6, 8, 12 and 24 h of incubation, and serial dilutions of samples were plated to count visible colonies. Vancomycin was tested in the same way as a positive control and the culture without antimicrobial agent as a negative control (Xiong et al. [2011]). All experiments were performed in triplicate.

[4] = system: S. enteritidis CMCC50336; test: MIC assay; type: cell-based, Salmonella enteritidis; conditions: MHB, 1 × 10^5 CFU/ml, 37 °C, 18–24 h, triplicate
Method: as §1

[5] = system: mice red blood cells; test: Hemolytic assay; type: cell-based; conditions: 0.23 to 7.27 μM (1–32 μg/ml), 37 °C 1 h
Method: The mice blood cells were washed three times in stroke-physiological saline solution (0.9% NaCl) and centrifuged at 4 °C, 2000 rpm for 5 min. A 50-μl cell was diluted to 8% (v/v), added into 96-well plates, and mixed with 50-μl peptide to the final concentrations ranging from […]. The plates were incubated at 37 °C for 1 h, and centrifuged at 4 °C, 5000 rpm for 5 min. The absorbance of supernatants was measured at 540 nm, and 0 and 100% hemolysis was measured by 0.9% NaCl and 0.1% Triton X-100, respectively. The hemolysis percentages were calculated by the following equation: [(Abs540 nm in H1, H2, H3 solution − Abs540 nm in 0.9% NaCl)/(Abs540 nm in 0.1% Triton X-100 − Abs540 nm in 0.9% NaCl)] ×100% (Jiao et al. [2015]).

[6] = system: S. aureus ATCC43300; test: Effect of pH on activity (MIC); type: cell-based, Staphylococcus aureus; conditions: then MIC assay
Method: as §1, §2

[7] = system: S. choleraesuis CVCC503; test: MIC assay; type: cell-based; conditions: MHB, 1 × 10^5 CFU/ml, 37 °C, 18–24 h, triplicate
Method: as §1

[8] = system: S. pullorum CVCC1789; test: MIC assay; type: cell-based; conditions: MHB, 1 × 10^5 CFU/ml, 37 °C, 18–24 h, triplicate
Method: as §1

[9] = system: S. typhimurium ATCC14028; test: MIC assay; type: cell-based; conditions: MHB, 1 × 10^5 CFU/ml, 37 °C, 18–24 h, triplicate
Method: as §1

[10] = system: S. aureus ATCC43300; test: microbe, parasite or virus in culture; type: cell-based, Staphylococcus aureus; conditions: for MICc (MIC of the most effective combination): checkerboard; for FIC: MICc/MICa
Method: The MIC values of four antibiotics (vancomycin, ampicillin, rifampicin and ciprofloxacin) to S. aureus ATCC43300 were tested as the MIC assay described above. The peptide solutions and antibiotics were diluted twofold with the final concentrations ranging from 1/16 to 8× MIC, and added into 96-well plates in a checkerboard fashion (White et al. [1996]). The results of combination were evaluated by calculating the fractional inhibitory concentration index (FICI) of each combination. FIC of H1, H2, H3=MIC of H1, H2, H3, respectively, in combination with antibiotic/MIC of H1, H2, H3 alone; FIC of antibiotics=MIC of antibiotic in combination with peptide/MIC of antibiotic alone; FICI = FIC of H1, H2, H3+ antibiotic, respectively. The result of interaction between two antimicrobial drugs was determined according to: FICI ≤ 0.5 refers to synergy, 0.5 < FICI ≤ 1 refers to additivity, 1 < FICI ≤ 4 refers to indifference, and FICI > 4 is defined as antagonism (Tsuji and Rybak [2006]).

[11] = in combination with ciprofloxacin

CC[C@H](C)[C@@H]1NC(=O)[C@H](CO)NC(=O)[C@H](CCCCN)NC(=O)[C@@H]2CSSC[C@@H](C(=O)N[C@@H](Cc3ccc(O)cc3)C(=O)O)NC(=O)[C@H](CCCCN)NC(=O)[C@@H]3CSSC[C@H](NC(=O)[C@H](CCCNC(=N)N)NC(=O)[C@H](CC(C)C)NC(=O)[C@H](CC(=O)O)NC(=O)[C@H](CC(=O)O)NC(=O)[C@H](CCC(=O)O)NC(=O)[C@H](CC(N)=O)NC(=O)[C@H](Cc4c[nH]c5ccccc45)NC(=O)[C@@H]4CCCN4C(=O)CNC(=O)[C@H](CC(N)=O)NC(=O)[C@@H](NC(=O)CNC(=O)[C@H](Cc4ccccc4)NC(=O)CN)CSSC[C@H](NC(=O)[C@H](Cc4ccc(O)cc4)NC(=O)CNC(=O)CNC(=O)[C@H](CCCCN)NC(=O)[C@H](Cc4ccc(O)cc4)NC(=O)CNC(=O)[C@H](CCCCN)NC1=O)C(=O)N[C@@H](C)C(=O)N[C@@H](CCCCN)C(=O)NCC(=O)NCC(=O)N[C@@H](Cc1ccccc1)C(=O)N[C@@H](C(C)C)C(=O)N3)C(=O)N[C@@H](CCCNC(=N)N)C(=O)N[C@@H](CC(N)=O)C(=O)N[C@@H](Cc1c[nH]cn1)C(=O)N2 [H2] (H-GFGCNGPWNEDDLRCRNHCKSIKGYKGGYCAKGGFVCKCY-OH; disulfide 4-30, 15-37, 19-39 (inferred); N-terminus and C-terminus assumed)
MIC after Trypsin [1]: 0.454 µM (≈ 2.01 µg/mL)
PAE ([2]; 1× MIC): 0.63 h and 0.63 ± 0.13 h
PAE ([2]; 2× MIC): 1.75 ± 0.04 h
time for bacterial counts to decrease to 2 log10 CFU/ml (a 99.9% reduction) ([3]; 1× MIC): 1.5 h
regrowth of pathogens up to 24 h ([3]; 1×, 2× and 4× MIC, maintained to 24 h): without regrowth
time for bacterial counts to decrease to 2 log10 CFU/ml (a 99.9% reduction) ([3]; 2× MIC): 1 h
time for bacterial counts to decrease to 2 log10 CFU/ml (a 99.9% reduction) ([3]; 4× MIC): 0.5 h
MIC [4]: >7.273 µM
hemolytic activity [5]: little or no hemolytic activity
MIC after incubation at pH2 ([6]; pH 2, 37 °C for 4 h): 0.114 μM
MIC after incubation at pH4 ([6]; pH 4, 37 °C for 4 h): 0.114 μM
MIC after incubation at pH6 ([6]; pH 6, 37 °C for 4 h): 0.114 μM
MIC after incubation at pH8 ([6]; pH 8, 37 °C for 4 h): 0.114 μM
MIC after incubation at pH10 ([6]; pH 10, 37 °C for 4 h): 0.114 μM
MIC [7]: >7.273 µM
MIC [8]: >7.273 µM
MIC [9]: >7.273 µM
MICc (MIC of the most effective combination) ([10]; in combination with ampicillin): 0.113 µM
MICc (MIC of the most effective combination) [10, 11]: 0.227 µM
MICc (MIC of the most effective combination) ([10]; in combination with rifampicin): 0.056 µM
MICc (MIC of the most effective combination) ([10]; in combination with vancomycin): 0.113 µM
MIC ([10]; drug alone, read-out: MICa (MIC of drug alone)): 0.113 µM
FIC ([10]; in combination with ampicillin): 1
FIC [10, 11]: 2
FIC ([10]; in combination with rifampicin): 0.5
FIC ([10]; in combination with vancomycin): 1
